The target of one data set is E. coli gyrase (Escherichia coli, UniProt P0AES4+P0AES6). The data set is described as follows: biochemical. Conditions: supercoiling of relaxed pBR322, 30 minutes at 37° C.
For a further data set, the system named is E. coli Tol C. The data set is described as follows: Test A antibacterial assay, standard microtitration (MIC). It is filed as cell-based. Conditions: Escherichia coli, read-out: Minimum Inhibitory Concentrations, E. coli Tol C. The method, then:
(§1) The compounds of the present invention were tested against an assortment of Gram-negative and Gram-positive organisms using standard microtitration techniques (Cohen, et al., Antimicrob. Agents Chemother., 1985;28:766; Heifetz, et al., Antimicrob. Agents Chemother., 1974;6:124). […]

The test system of a further data set is E. faecalis RB1. The data set is described as above. It counts as cell-based. The note with it: Enterococcus faecalis, Gram positive, read-out: Minimum Inhibitory Concentrations, E. faecalis RB1. The method, then: as §1
In another data set the test system is E. coli MC 4100. The data set is described as above. It counts as cell-based. Conditions: Escherichia coli, MC4100; Gram negative; read-out: Minimum Inhibitory Concentrations, E. coli MC 4100. Here is the method:
as §1

Another data set concerns S. pyogenes C203. The description is as above. It counts as cell-based. Conditions: Streptococcus pyogenes, Gram positive, read-out: Minimum Inhibitory Concentrations, S. pyogenes C203. Here is the method: as §1
For a further data set, the system named is E. coli B90. The description is as above. It counts as cell-based. Conditions: Escherichia coli, Gram negative, read-out: Minimum Inhibitory Concentrations, E. coli B90. Here is the method: as §1
Another data set has as its system N. gonorrhoeae 2709. The data set is described as follows: Test C cross resistance antibacterial assay (MIC). It counts as cell-based. Conditions: Neisseria gonorrhoeae, 2709, read-out: Minimum Inhibitory Concentrations, N. g. 2709.
For the next data set, the system named is N. gonorrhoeae 2637. The data set is described as follows: Test C cross resistance antibacterial assay (MIC). It counts as cell-based, Neisseria gonorrhoeae.
The next data set has as its system S. aureus 29213. The data set is described as follows: Test A antibacterial assay, standard microtitration (MIC). It is filed as cell-based. The note with it: Staphylococcus aureus, Gram positive, read-out: Minimum Inhibitory Concentrations, S. aureus 29213. The method, then:
as §1

Another data set deals with S. pyogenes. The data set is described as follows: In vivo median protective dose in mice given lethal systemic infections. Conditions: lethal systemic infection.
The test system of a further data set is S. aureus UC-76. The data set is described as follows: Test C cross resistance antibacterial assay (MIC). It is filed as cell-based. Conditions: Staphylococcus aureus. The method, then: (§2) The compounds of the present invention were tested against an assortment of ciprofloxacin resistant E. coli and S. aureus organisms described below using standard microtitration techniques (Cohen, et al., Antimicrob. Agents Chemother., 1985;28:766; Heifetz, et al., Antimicrob. Agents Chemother., 1974;6:124).

The next data set has as its system S. aureus 2552. The data set is described as follows: Test C cross resistance antibacterial assay (MIC). It counts as cell-based. The method, then: as §2
Where [1] appears, read: Neisseria gonorrhoeae, 2637, derivative of MS11, parent strain, read-out: Minimum Inhibitory Concentrations, N. g. 2637.
Where [2] appears, read: UC76, wild type sensitive strain, read-out: Minimum Inhibitory Concentrations, S. aureus UC-76.
Setting [3] is: Staphylococcus aureus, 2552, upregulated norA pump, read-out: Minimum Inhibitory Concentrations, S. aureus 2552.

The values below come from patent US6864259B2, “Antibacterial agents” (Warner-Lambert Company, priority 2001, dated 2005).

Structures are written as SMILES. Converted amounts (≈) assume the structure as drawn. Where a name gives a salt, the structure may show the parent alone. Read-outs that look alike come from different tables or passages of the source.

Sequence of E. coli gyrase (P0AES4 whole entry, one chain of several): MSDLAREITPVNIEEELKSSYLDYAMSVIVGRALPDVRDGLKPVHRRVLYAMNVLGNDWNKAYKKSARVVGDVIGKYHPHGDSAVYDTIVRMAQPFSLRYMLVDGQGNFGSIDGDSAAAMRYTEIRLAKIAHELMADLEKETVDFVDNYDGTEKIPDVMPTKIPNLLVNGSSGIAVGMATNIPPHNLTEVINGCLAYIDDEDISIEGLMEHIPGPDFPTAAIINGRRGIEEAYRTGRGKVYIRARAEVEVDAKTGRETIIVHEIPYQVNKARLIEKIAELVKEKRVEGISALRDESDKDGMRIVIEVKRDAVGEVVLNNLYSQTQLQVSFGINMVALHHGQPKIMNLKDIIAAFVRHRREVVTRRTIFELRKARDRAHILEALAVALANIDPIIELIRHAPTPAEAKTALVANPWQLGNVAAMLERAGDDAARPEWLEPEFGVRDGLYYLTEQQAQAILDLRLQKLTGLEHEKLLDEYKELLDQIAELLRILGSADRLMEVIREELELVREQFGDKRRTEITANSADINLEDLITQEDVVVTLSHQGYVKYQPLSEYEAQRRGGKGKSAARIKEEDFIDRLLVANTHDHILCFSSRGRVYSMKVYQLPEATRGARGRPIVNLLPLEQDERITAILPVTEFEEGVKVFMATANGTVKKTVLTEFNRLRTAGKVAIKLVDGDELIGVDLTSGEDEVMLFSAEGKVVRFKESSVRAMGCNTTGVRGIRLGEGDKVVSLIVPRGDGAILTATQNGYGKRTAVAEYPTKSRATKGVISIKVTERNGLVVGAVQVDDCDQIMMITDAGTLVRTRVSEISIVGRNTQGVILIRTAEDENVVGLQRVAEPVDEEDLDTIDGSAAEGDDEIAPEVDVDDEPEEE

In general, melting point refers to the temperature, or range, at which the solid turns liquid. With `Cc1c(N2CC[C@@H]([C@@H](C)N)C2)c(F)cn2c(=O)n(N)c(=O)c(C3CC3)c12.Cl`, the melting point fell in the range of 218 to 221 °C.

The compound `Cc1c(N2CCC(N)C2)c(F)cn2c(=O)n(N)c(=O)c(C3CC3)c12.Cl` (stereo not shown) came in with a melting point of 246 to 248 °C.

The compound `Cc1c(N2CC(C)C(C(C)N)C2)c(F)cn2c(=O)n(N)c(=O)c(C3CC3)c12.Cl` (stereo not shown) had a melting point of 238 to 240 °C.

For the compound `Cc1c(N2CC(C(C)N)C(C)(C)C2)c(F)cn2c(=O)n(N)c(=O)c(C3CC3)c12` (stereo not shown) (as salt: hydrochloride) [Compound 5c, 2-Amino-6-[4-(1-amino-ethyl)-3,3-dimethylpyrrolidin-1-yl]-4-cyclopropropyl-7-fluoro-5-methyl-pyrido[1,2-c]pyrimidine-1,3-dione, hydrochloride], the melting point fell in the range of 238 to 240 °C.

By IC50 is commonly meant the midpoint of a concentration-inhibition curve. With `Cc1c(N2C[C@H](CN)[C@H](F)C2)c(F)cn2c(=O)n(N)c(=O)c(C3CC3)c12` (racemic) [Compound 4j, 2-Amino-6-((3S,4S) and (3R,4R)-3-aminomethyl-4-fluoropyrrolidin-1-yl)-4-cyclopropyl-7-fluoro-5-methylpyrido[1,2-c]pyrimidine-1,3-dione], the IC50 against E. coli gyrase was 1500 nM. Further, the MIC is 0.13 µg/mL (≈ 0.356 µM) with E. coli Tol C; 0.5 µg/mL (≈ 1.37 µM) in the data set with E. faecalis RB1; 2 µg/mL (≈ 5.47 µM) in the data set with E. coli MC 4100; 0.03 µg/mL (≈ 0.0821 µM) in the data set with S. pyogenes C203; 0.25 µg/mL (≈ 0.684 µM) with E. coli B90.

As for `O=C(O)c1cn(C2CC2)c2cc(N3CCNCC3)c(F)cc2c1=O` [Ciprofloxacin, ciprofloxacin, reference compound], the MIC was 0.06 µg/mL (≈ 0.181 µM) in the data set with N. gonorrhoeae 2709; 0.002 µg/mL (≈ 0.00604 µM) in the data set on N. gonorrhoeae 2637 (Neisseria gonorrhoeae, 2637, read-out: Minimum Inhibitory Concentrations, N. g. 2637); less than 0.01 µg/mL in the data set with E. coli Tol C; 0.5 µg/mL (≈ 1.51 µM) in the data set with E. faecalis RB1; less than 0.02 µg/mL in the data set on E. coli MC 4100; 0.5 µg/mL (≈ 1.51 µM) in the data set with S. pyogenes C203. Also, the MIC is 0.5 µg/mL (≈ 1.51 µM) in the data set on S. aureus 29213; less than 0.01 µg/mL in the data set with E. coli B90; 0.13 µg/mL (≈ 0.392 µM) with S. aureus UC-76 (UC76, read-out: Minimum Inhibitory Concentrations, S. aureus UC-76); 2 µg/mL (≈ 6.04 µM) in the data set on S. aureus 2552 (Staphylococcus aureus, 2552, read-out: Minimum Inhibitory Concentrations, S. aureus 2552). For the same compound, the “In Vivo Median Protective Dose (PD50) in Mice (PO)” value (“In Vivo Median Protective Dose” below) in the data set with S. pyogenes is recorded as more than 100 mg/kg.

As to `CN[C@@H](C)[C@@H]1CCN(c2c(F)cn3c(=O)n(N)c(=O)c(C4CC4)c3c2C)C1` [Compound 4f, 2-Amino-4-cyclopropyl-7-fluoro-5-methyl-6-[3-(1-methylaminoethyl)pyrrolidin-1-yl]pyrido[1,2-c]pyrimidine-1,3-dione], the MIC turned out to be 0.5 µg/mL (≈ 1.33 µM) in the data set with N. gonorrhoeae 2709; 0.25 µg/mL (≈ 0.666 µM) with N. gonorrhoeae 2637 (setting [1]); 0.03 µg/mL (≈ 0.0799 µM) with E. coli Tol C; 0.06 µg/mL (≈ 0.16 µM) in the data set on E. faecalis RB1; 2 µg/mL (≈ 5.33 µM) with E. coli MC 4100; 0.015 µg/mL (≈ 0.04 µM) with S. pyogenes C203. For the same compound, the MIC in the data set on S. aureus 29213 stood at 0.25 µg/mL (≈ 0.666 µM); in the data set on E. coli B90, 0.13 µg/mL (≈ 0.346 µM); in the data set with S. aureus UC-76 (setting [2]), 0.06 µg/mL (≈ 0.16 µM); in the data set on S. aureus 2552 (setting [3]), 0.5 µg/mL (≈ 1.33 µM). This compound returned an IC50 on E. coli gyrase of 1000 nM. Also, the “In Vivo Median Protective Dose” value with S. pyogenes came out at 1.2 mg/kg.

Consider `Cc1c(N2CCCC2)c(F)cn2c(=O)n(N)c(=O)c(C3CC3)c12` [Compound 4g, 2-Amino-4-cyclopropyl-7-fluoro-5-methyl-6-pyrrolidin-1-yl-pyrido[1,2-c]pyrimidine-1,3-dione], for which the melting point was 202 to 204 °C. Moreover, the IC50 at E. coli gyrase was 1700 nM. The MIC with E. coli Tol C was less than 0.06 µg/mL. Further, the MIC in the data set with E. faecalis RB1 came out at 2 µg/mL (≈ 6.28 µM). Moreover, the MIC in the data set with E. coli MC 4100 stood at 16 µg/mL (≈ 50.3 µM). The MIC in the data set with S. pyogenes C203 was 1 µg/mL (≈ 3.14 µM). Moreover, the MIC in the data set with S. aureus 29213 stood at 1 µg/mL (≈ 3.14 µM). The MIC in the data set with E. coli B90 was 0.25 µg/mL (≈ 0.785 µM).

`Cc1c(N2CCC(C(C)O)C2)c(F)cn2c(=O)n(N)c(=O)c(C3CC3)c12` (stereo not shown) [Compound 4h] yielded a melting point of 172 to 174 °C. This compound also had an IC50 against E. coli gyrase of 1200 nM. In the data set on E. coli Tol C, the MIC is less than 0.06 µg/mL. The MIC in the data set on E. faecalis RB1 was 2 µg/mL (≈ 5.52 µM). Besides, the MIC in the data set with E. coli MC 4100 amounted to 16 µg/mL (≈ 44.1 µM). For the same compound, the MIC with S. pyogenes C203 amounted to 2 µg/mL (≈ 5.52 µM). Moreover, in the data set on S. aureus 29213, the MIC was 0.5 µg/mL (≈ 1.38 µM). The MIC in the data set with E. coli B90 came to 0.13 µg/mL (≈ 0.359 µM). In addition, the MIC with S. aureus UC-76 (setting [2]) is 0.5 µg/mL (≈ 1.38 µM). In addition, the MIC in the data set on S. aureus 2552 (setting [3]) was determined as 1 µg/mL (≈ 2.76 µM).

In the case of `Cc1c(N2CC[C@@H](C3(N)CC3)C2)c(F)cn2c(=O)n(N)c(=O)c(C3CC3)c12` [Compound 4i, 2-Amino-6-[(R)-3-(1-aminocyclopropyl)pyrrolidin-1-yl]-4-cyclopropyl-7-fluoro-5-methylpyrido[1,2-c]pyrimidine-1,3-dione], the MIC with N. gonorrhoeae 2709 worked out at 0.13 µg/mL (≈ 0.348 µM); with N. gonorrhoeae 2637 (setting [1]), 0.03 µg/mL (≈ 0.0803 µM); in the data set with E. coli Tol C it was 0.015 µg/mL (≈ 0.0402 µM); in the data set on E. faecalis RB1, 0.06 µg/mL (≈ 0.161 µM); with E. coli MC 4100 it was 0.5 µg/mL (≈ 1.34 µM); with S. pyogenes C203, 0.015 µg/mL (≈ 0.0402 µM). Besides, the MIC in the data set with S. aureus 29213 came to 0.06 µg/mL (≈ 0.161 µM); in the data set on E. coli B90 it was 0.03 µg/mL (≈ 0.0803 µM); in the data set with S. aureus UC-76 (setting [2]) it was 0.06 µg/mL (≈ 0.161 µM); in the data set with S. aureus 2552 (setting [3]), 0.06 µg/mL (≈ 0.161 µM). On E. coli gyrase, this compound displayed an IC50 of 640 nM. The “In Vivo Median Protective Dose” value in the data set on S. pyogenes amounted to 2.1 mg/kg.

In turn, `Cc1c(N2CC[C@@H]([C@H](C)N)C2)c(F)cn2c(=O)n(N)c(=O)c(C3CC3)c12.Cl` [Compound 5b, 2-Amino-6-[(R)-3-((S)-1-aminoethyl)pyrrolidin-1-yl]-4-cyclopropyl-7-fluoro-5-methyl-pyrido[1,2-c]pyrimidine-1,3-dione, hydrochloride] yielded a melting point of 218 to 220 °C. Besides, in the data set on N. gonorrhoeae 2709, the MIC was 0.25 µg/mL. This compound had an IC50 at E. coli gyrase of 500 nM. Further, the MIC with N. gonorrhoeae 2637 (setting [1]) turned out to be 0.13 µg/mL. The MIC in the data set on E. coli Tol C was found to be 0.03 µg/mL. Moreover, in the data set on E. faecalis RB1, the MIC came to 0.13 µg/mL. The MIC in the data set with E. coli MC 4100 came out at 0.5 µg/mL. Besides, the MIC with S. pyogenes C203 amounted to 0.008 µg/mL. The MIC with S. aureus 29213 came to 0.25 µg/mL. Also, in the data set on E. coli B90, the MIC was 0.06 µg/mL. Further, in the data set with S. aureus UC-76 (setting [2]), the MIC amounted to 0.06 µg/mL. In addition, in the data set with S. aureus 2552 (setting [3]), the MIC was 0.25 µg/mL.

With `Cc1c(N2CC(C(C)N)C(C)(C)C2)c(F)cn2c(=O)n(N)c(=O)c(C3CC3)c12` (stereo not shown) [Compound 5c, 2-Amino-6-[4-(1-amino-ethyl)-3,3-dimethylpyrrolidin-1-yl]-4-cyclopropropyl-7-fluoro-5-methyl-pyrido[1,2-c]pyrimidine-1,3-dione, hydrochloride], the IC50 on E. coli gyrase amounted to 700 nM. The MIC in the data set on E. coli Tol C was determined as 0.5 µg/mL; in the data set on E. faecalis RB1, 2 µg/mL; with E. coli MC 4100, 16 µg/mL; with S. pyogenes C203, 0.5 µg/mL; in the data set with S. aureus 29213 it was 2 µg/mL; in the data set with E. coli B90, 2 µg/mL.
